From patent publication US7342030B2, “Indole derivatives” (Hoffmann-La Roche Inc., priority 2004, dated 2008) come the findings set out here.

This assay deals with HEK293 cells. Put plainly: Viability Assay of HEK293 Cells (CellTiter-Glo Luminescent Cell Viability Assay). Format: cell-based. Conditions: Homo sapiens, 7 days (168 h) incubation, compounds 3 μM to 0.00015 μM, ATP luminescence. The protocol:
Viability Assay of HEK293 Cells
A viability assay was performed using the CellTiter-Glo® Luminescent Cell Viability Assay (see Promega Corporation's Technical Bulletin No. 288, pp. 1-11 [revised 2/04] which is hereby incorporated by reference in its entirety). This assay is a homogeneous method of determining the number of viable cells in culture based on quantitation of the ATP present, an indicator of metabolically active cells. The assay is designed for use with multiwell formats, making it ideal for automated high-throughput screening (HTS), cell proliferation and cytotoxicity assays. The homogeneous assay procedure involves adding a single reagent (containing luciferase, luciferan substrate, and buffer) directly to cells cultured in serum-supplemented medium. Cell washing, removal of medium and multiple pipetting steps are not required. The system detects as few as 15 cells/well in a 384-well format in 10 minutes after adding reagent and mixing.
The homogeneous “add-mix-measure” format results in cell lysis and generation of a luminescent signal proportional to the amount of ATP present. The amount of ATP is directly proportional to the number of cells present in culture. The above-referenced assay generates a “glow-type” luminescent signal, produced by the luciferase reaction, which has a half-life generally greater than five hours, depending on cell type and medium used. The extended half-life eliminates the need to use reagent injectors and provides flexibility for continuous or batch mode processing of multiple plates. The unique homogeneous format avoids errors that may be introduced by other ATP measurement methods that require multiple steps.
HEK293 cells (human embryonic kidney cell line transformed by Adenovirus 5 fragments, ATCC-No. CRL 1573) were cultivated in Dulbecco's Modified Eagle Medium (D-MEM) (1×) liquid (high glucose) (which includes L-Alanyl-L-Glutamine [a stabilized a form of L-Glutamine], 4500 mg/L glucose, and 110 mg/L sodium pyruvate) from Invitrogen Coropration (Invitrogen Catalog Number 31966-021 [now 10569-010] which is hereby incorporated by reference), 5% Fetal Calf Serum (FCS, Sigma Cat-No. F4135 (FBS)), 100 Units/ml penicillin/100 μg/ml streptomycin (=Pen/Strep from Invitrogen Cat. No. 15140). For the assay the cells were seeded in 384 well plates, 5000 cells per well, in the same medium. The next day the test compounds were added in various concentrations ranging from 3 μM to 0.00015 μM (10 concentrations, 1:3 diluted).
After 7 days the above viability assay was performed in accordance with the following steps: • Step 1: The cell-plate was equilibrated to room temperature for approximately 30 minutes and than the assay reagent was added. • Step 2: The contents were carefully mixed for 15 minutes to induce cell lysis. • Step 3: After 45 minutes the luminescent signal was measured in Victor 2, (a scanning multiwell spectrophotometer, Wallac). Details:
Medium: Dulbecco's Modified Eagle Medium (D-MEM) (1×) liquid (high glucose) (which includes L-Alanyl-L-Glutamine [a stabilized a form/source of L-Glutamine], 4500 mg/L glucose, and 110 mg/L sodium pyruvate) from Invitrogen Coropration (Invitrogen Catalog Number 31966-021 [now 10569-010] which is hereby incorporated by reference in its entirety), 5% Fetal Calf Serum (FCS, Sigma Cat-No. F4135 [FBS] which is hereby incorporated by reference in its entirety), Pen/Strep contaning 100 Units/ml penicillin/100 μg/ml streptomycin (Invitrogen Catalog Number 15140, which is hereby incorporated by reference in its entirety). —HEK293 (ATCC-No. CRL 1573): 5000 cells in 60 μl per well of 384 well plate (Greiner 781098, white plates) • Incubate 24 h at 37° C., 5% CO2
2. Day: Induction (Substance Testing): […]
On the technique in general: ATP-based viability assays read luminescence as a measure of living cells.
The term IC50 denotes the midpoint of a concentration-inhibition curve. Read a high IC50 as weaker potency in that assay. `O=S(=O)(Cc1coc(-c2cc3cc(F)ccc3[nH]2)n1)c1ccc(CCCCn2ccnn2)cc1` [Example 21, 5-Fluoro-2-{4-[4-(4-[1,2,3]triazol-1-yl-butyl)-benzenesulfonylmethyl]-oxazol-2-yl}-1H-indole] registered an IC50 of 50 to 500 nM. `Clc1ccc2cc(-c3nc(COc4cccc(CCCn5ccnn5)c4)co3)[nH]c2c1` [Example 16, 6-Chloro-2-{4-[3-(3-[1,2,3]triazol-1-yl-propyl)-phenoxymethyl]-oxazol-2-yl}-1H-indole] registered an IC50 of 0.1 to 50 nM. As for `Cc1cc(OCc2coc(-c3cc4cc(F)ccc4[nH]3)n2)ccc1CCCCn1ccnn1` [Example 7, 5-Fluoro-2-{4-[3-methyl-4-(4-[1,2,3]triazol-1-yl-butyl)-phenoxymethyl]-oxazol-2-yl}-1H-indole], the figure is 0.1 to 50 nM; as for `Fc1ccc2cc(-c3nc(CNc4ccc(CCCCn5ccnn5)cc4)co3)[nH]c2c1` [Example 23, [2-(6-Fluoro-1H-indol-2-yl)-oxazol-4-ylmethyl]-[4-(4-[1,2,3]triazol-1-yl-butyl)-phenyl]-amine], 0.1 to 50 nM.

`[O-][S+](CCn1ccnn1)Cc1ccc(OCc2coc(-c3cc4cc(Cl)ccc4[nH]3)n2)cc1` (stereo not drawn) [Example 12, 5-Chloro-2-{4-[4-(2-[1,2,3]triazol-1-yl-ethanesulfinylmethyl)-phenoxymethyl]-oxazol-2-yl}-1H-indole] gave an IC50 of 500 to 1000 nM. As for `FC(F)(F)Oc1ccc2[nH]c(-c3nc(CNc4ccc(CCCCn5ccnn5)cc4)co3)cc2c1` [Example 22, [4-(4-[1,2,3]Triazol-1-yl-butyl)-phenyl]-[2-(5-trifluoromethoxy-1H-indol-2-yl)-oxazol-4-ylmethyl]-amine], the figure is 50 to 500 nM.

In turn, `FC(F)(F)Oc1ccc2[nH]c(-c3nc(COc4ccc(CCCCn5ccnn5)cc4)co3)cc2c1` [Example 1, 2-{4-[4-(4-[1,2,3]Triazol-1-yl-butyl)-phenoxymethyl]-oxazol-2-yl}-5-trifluoromethoxy-1H-indole] displayed an IC50 of 0.1 to 50 nM. As for `Cc1cc(NCc2coc(-c3cc4cc(Cl)ccc4[nH]3)n2)ccc1CCCCn1ccnn1` [Example 29, [2-(5-Chloro-1H-indol-2-yl)-oxazol-4-ylmethyl]-[3-methyl-4-(4-[1,2,3]triazol-1-yl-butyl)-phenyl]-amine], the figure is 0.1 to 50 nM; as for `Cc1cc(OCc2coc(-c3cc4ccc(F)cc4[nH]3)n2)ccc1CCCCn1ccnn1` [Example 8, 6-Fluoro-2-{4-[3-methyl-4-(4-[1,2,3]triazol-1-yl-butyl)-phenoxymethyl]-oxazol-2-yl}-1H-indole], 0.1 to 50 nM; as for `Fc1cc(NCc2coc(-c3cc4cc(Cl)ccc4[nH]3)n2)ccc1CCCCn1ccnn1` [Example 33, [2-(5-Chloro-1H-indol-2-yl)-oxazol-4-ylmethyl]-[3-fluoro-4-(4-[1,2,3]triazol-1-yl-butyl)-phenyl]-amine], 0.1 to 50 nM. As for `Fc1ccc2cc(-c3nc(COc4ccc(CCCCn5ccnn5)cc4)co3)[nH]c2c1` [Example 4, 6-Fluoro-2-{4-[4-(4-[1,2,3]triazol-1-yl-butyl)-phenoxymethyl]-oxazol-2-yl}-1H-indole], the figure is 0.1 to 50 nM; as for `Fc1ccc2[nH]c(-c3nc(COc4ccc(COCCn5ccnn5)cc4)co3)cc2c1` [Example 11, 5-Fluoro-2-{4-[4-(2-[1,2,3]triazol-1-yl-ethoxymethyl)-phenoxymethyl]-oxazol-2-yl}-1H-indole], 0.1 to 50 nM; as for `Fc1ccc2[nH]c(-c3nc(CNc4ccc(CCCCn5ccnn5)nc4)co3)cc2c1` [Example 38, [2-(5-Fluoro-1H-indol-2-yl)-oxazol-4-ylmethyl]-[6-(4-[1,2,3]triazol-1-yl-butyl)-pyridin-3-yl]-amine], 50 to 500 nM. For the compound `Fc1ccc2[nH]c(-c3nc(CNc4ccc(CCCCn5ccnn5)cc4)co3)cc2c1` [Example 24, [2-(5-Fluoro-1H-indol-2-yl)-oxazol-4-ylmethyl]-[4-(4-[1,2,3]triazol-1-yl-butyl)-phenyl]-amine], the IC50 amounted to 37 nM.

As for `Clc1ccc2[nH]c(-c3nc(COc4ccc(COCCn5ccnn5)cc4)co3)cc2c1` [Example 10, 5-Chloro-2-{4-[4-(2-[1,2,3]triazol-1-yl-ethoxymethyl)-phenoxymethyl]-oxazol-2-yl}-1H-indole], the IC50 lay in the range of 0.1 to 50 nM. With `Fc1cc(CCCCn2ccnn2)ccc1NCc1coc(-c2cc3cc(Cl)ccc3[nH]2)n1` [Example 35, [2-(5-Chloro-1H-indol-2-yl)-oxazol-4-ylmethyl]-[2-fluoro-4-(4-[1,2,3]triazol-1-yl-butyl)-phenyl]-amine], the IC50 lay within 50 to 500 nM. With `Clc1ccc2[nH]c(-c3nc(COc4ccc(CCCCn5ccnn5)cc4)co3)cc2c1` [Example 2, 5-Chloro-2-{4-[4-(4-[1,2,3]triazol-1-yl-butyl)-phenoxymethyl]-oxazol-2-yl}-1H-indole], the IC50 fell in the range of 0.1 to 50 nM.

As to `Fc1ccc2[nH]c(-c3nc(CNc4ccc(CCCCn5ccnn5)c(F)c4)co3)cc2c1` [Example 32, [2-(5-Fluoro-1H-indol-2-yl)-oxazol-4-ylmethyl]-[3-fluoro-4-(4-[1,2,3]triazol-1-yl-butyl)-phenyl]-amine], the IC50 was in the range of 0.1 to 50 nM. As for `Cc1cc(OCc2coc(-c3cc4cc(F)ccc4[nH]3)n2)ccc1COCCn1ccnn1` [Example 40, 5-Fluoro-2-{4-[3-methyl-4-(2-[1,2,3]triazol-1-yl-ethoxymethyl)-phenoxymethyl]-oxazol-2-yl}-1H-indole], the IC50 was 0.1 to 50 nM.

Turning to `Clc1ccc2[nH]c(-c3nc(COc4ccc(COCCn5ccnn5)cc4)cs3)cc2c1` [Example 18, 5-Chloro-2-{4-[4-(2-[1,2,3]triazol-1-yl-ethoxymethyl)-phenoxymethyl]-thiazol-2-yl}-1H-indole], the IC50 is 50 to 500 nM. Turning to `Fc1ccc2[nH]c(-c3nc(COc4ccc(CCCCn5ccnn5)cc4)co3)cc2c1` [Example 3, 5-Fluoro-2-{4-[4-(4-[1,2,3]triazol-1-yl-butyl)-phenoxymethyl]-oxazol-2-yl}-1H-indole], the midpoint of inhibition, the IC50, lay at 6.6 nM. For `Clc1ccc2[nH]c(-c3nc(COc4ccc(CCCCn5ccnn5)cc4)cs3)cc2c1` [Example 17, 5-Chloro-2-{4-[4-(4-[1,2,3]triazol-1-yl-butyl)-phenoxymethyl]-thiazol-2-yl}-1H-indole] the value was 0.1 to 50 nM. For `[O-][S+](CCn1ccnn1)Cc1ccc(OCc2coc(-c3cc4cc(F)ccc4[nH]3)n2)cc1` (stereo not drawn) [Example 13, 5-Fluoro-2-{4-[4-(2-[1,2,3]triazol-1-yl-ethanesulfinylmethyl)-phenoxymethyl]-oxazol-2-yl}-1H-indole] the value was 50 to 500 nM. For `FC(F)(F)Oc1ccc2[nH]c(-c3nc(COc4cccc(CCCn5ccnn5)c4)co3)cc2c1` [Example 14, 2-{4-[3-(3-[1,2,3]Triazol-1-yl-propyl)-phenoxymethyl]-oxazol-2-yl}-5-trifluoromethoxy-1H-indole] the value was 500 to 1000 nM.
